Patent US20250019369A1, “N-(4-aminocyclohexyl)pyrimidine-4-carboxamide derivatives as CD38 inhibitors” (Cerevance, Inc., priority 2021, published 2025)
Structures can show the parent of a compound that is named as a salt. Where two headings read alike, the source gives them in different places.

How the values were obtained:
[1] = PK brain permeability in C57BL/6 mice after single oral gavage; format: in vivo; conditions: male, C57BL/6, mouse, 2 hours post dose; for concentration at 2 h: po, 10 mg/kg; for Kpu,u (unbound brain/plasma partition coefficient) at 2 h: oral 10 mg/kg, read-out: Kpu,u (unbound partitioning coefficient, Cb,u/Cp,u)
Protocol: The distribution of compounds into the brain in vivo was determined in C57BL/6 mice following single oral (po) gavage administration.
Test compounds were formulated at 1 mg/mL in 0.5% HPMC E4 M, 0.2% Tween 80 in water to achieve solutions or homogenous suspensions suitable for po administration.
Formulations were administered to 3 male C57BL/6 mice at a volume of 10 mL/kg resulting in a dose level of 10 mg/kg. Blood samples were collected at 1 and 2 hours post dose into tubes containing K2EDTA as anticoagulant, processed to plasma and stored at −60° C. or lower until LC-MS/MS analysis. Brains were harvested 2 hours post dose, rinsed with saline, dried, weighed and homogenised under ice cold conditions. Brain homogenates were stored at −60° C. or lower until LC-MS/MS analysis.
Dose formulation concentrations were verified using a LC-UV or LC-MS/MS method. Test compound concentrations in plasma and brain homogenate were quantitatively determined using LC-MS/MS methods developed in individual matrices against calibration curves with QC samples included and acceptance criteria as per CRO SOPs. Concentrations in brain homogenate were corrected for the dilution factor used to prepare the homogenate to give concentrations in whole brain tissue.
Plasma and brain concentration versus time data were reported and plotted in excel. The brain to plasma ratio at 2 hours post dose was calculated for each animal using the following equation:
Brain:plasma=brain concentration (ng/g) at 2 h/plasma concentration (ng/mL) at 2 h
As only unbound test compound is available to exert an effect on the target, unbound plasma (Cp,u) and unbound brain (Cb,u) concentrations were calculated by correcting the total concentrations for the unbound fraction in plasma (fu,p) or brain (fu,b) determined from in vitro plasma protein or brain tissue binding assays using the following equations: […]
The unbound partitioning coefficient (Kpu,u) was then calculated based on the ratio of Cb,u to Cp,u using the following equation: […]
In these studies, mice were orally administrated a 10 mg/kg dose and sacrificed 2 hours post dose and tissue samples (brain homogenate and plasma) were analyzed subsequently as described above.

[2] = Tissue binding assay, brain homogenate (equilibrium dialysis); format: in vitro ADME; conditions: dialysis 4 hours at 37° C., dilution factor 4
Protocol: (§1) Buffer preparation. A basic solution was prepared by dissolving 14.2 g/L Na2HPO4 and 8.77 g/L NaCl in deionized H2O. An acidic solution was prepared by dissolving 15.6 g/L NaH2PO4·2H2O and 8.77 g/L NaCl in deionized H2O. Using the acidic solution, the basic solution was then titrated to pH 7.4±0.1 and stored at 4° C. for up to 1 month. The stop solution was 100% CH3CN containing 200 ng/mL tolbutamide, 200 ng/mL labetalol and 50 ng/mL metformin.
(§2) Test method. Dialysis membrane strips were soaked in ultra-pure water at room temperature for ˜1 hour. Each membrane strip containing 2 membranes was separated and soaked in 20:80 EtOH/H2O (v/v) for ˜20 min, after which they were ready for use or were stored in the solution at 2-8° C. for up to 1 month. Prior to the experiment, the membrane was rinsed and soaked for 20 min in ultra-pure water. On the day of experiment, brain homogenate was thawed in a water bath at room temperature and incubated at 37° C. for 10 min before use. Test and control compounds were dissolved in DMSO to achieve 10 mM stock solutions. DMSO working solutions were prepared at 400 μM by diluting 10 μL of stock solution. To prepare the time zero (t=0) samples to be used for recovery determination, 50 μL aliquots of loading matrix were transferred in triplicate to the sample collection plate. The samples were immediately matched with opposite blank buffer to obtain a final volume of 100 μL of 1:1 matrix/dialysis buffer (v/v) in each well. 500 μL of stop solution were added to these t=0 samples. They were then stored at 2-8° C. pending further processes along with other post-dialysis samples. To load the dialysis device, an aliquot of 150 μL of the loading matrix was transferred to the donor side of each dialysis well in triplicate, and 150 μL of the dialysis buffer was loaded to the receiver side of the well. The dialysis plate was placed in a humidified incubator at 37° C. with 5% CO2 on a shaking platform that rotated slowly (about 100 rpm) for 4 hours. At the end of the dialysis, aliquots of 50 μL of samples were taken from both the buffer side and the matrix side of the dialysis device. These samples were transferred into new 96-well plates. Each sample was mixed with an equal volume of opposite blank matrix (buffer or matrix) to reach a final volume of 100 μL of 1:1 matrix/dialysis buffer (v/v) in each well. All samples were further processed by adding 500 μL of stop solution containing internal standards. The mixture was vortexed and centrifuged at 4000 rpm for about 20 min. An aliquot of 100 μL of supernatant of all the samples was then removed for LC-MS/MS analysis. The single blank samples were prepared by transferring 50 μL of blank matrix to a 96-well plate and adding 50 μL of blank PBS buffer to each well. Then the matrix-matched samples were further processed by adding 500 μL of stop solution containing internal standards, following the same sample processing method as the dialysis samples.
(§3) Data analysis. The % undiluted unbound, % undiluted bound and % recovery were calculated using the following equations:
(§4) % Undiluted Unbound=100*1/D/((1/(F/T)−1)+1/D)
(§5) % Undiluted Bound=100−% Undiluted Unbound
(§6) where F is the analyte concentration or peak area ratio of analyte/internal standard on the buffer (receiver) side of the membrane; T is the analyte concentration or peak area ratio of analyte/internal standard on the matrix (donor) side of the membrane; To is the analyte concentration or the peak area ratio of analyte/internal standard in the loading matrix sample at time zero; and D is the dilution factor determined as 4 in this assay.

[3] = Tissue binding assay, plasma (equilibrium dialysis); format: in vitro ADME; conditions: dialysis 4 hours at 37° C.
Protocol: [The source words this procedure for another target and reports this target under the same test.] as §1, §2, §3, §4, §5, §6

Recombinant human CD38 = Recombinant human CD38 (Homo sapiens (Human), UniProt P28907); assay: Human CD38 hydrolase assay (fluorescence, ε-NAD substrate); format: biochemical; conditions: recombinant human CD38 0.8 nM, 4 μM ε-NAD, 30 min preincubation at 25° C., pH 7.4
Recombinant human CD38, sequence (P28907 whole entry): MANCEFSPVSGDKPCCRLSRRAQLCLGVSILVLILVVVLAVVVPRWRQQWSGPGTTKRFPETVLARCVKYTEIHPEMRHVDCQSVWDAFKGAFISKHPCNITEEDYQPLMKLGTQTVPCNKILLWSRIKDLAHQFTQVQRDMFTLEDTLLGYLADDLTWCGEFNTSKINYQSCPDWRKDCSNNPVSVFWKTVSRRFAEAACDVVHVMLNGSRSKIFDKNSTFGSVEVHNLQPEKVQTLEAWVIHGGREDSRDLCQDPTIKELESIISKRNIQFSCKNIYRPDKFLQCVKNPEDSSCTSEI
Protocol: (§7) The ability of test compounds to inhibit human CD38 hydrolase activity was measured in a fluorescence-based assay using non-physiological NAD^+ substrate analogue 1,N^6-etheno NAD^+ (ε-NAD). Recombinant human CD38 (0.8 nM) was preincubated with test compounds in 384-well black microplates for 30 min at 25° C. in PBS (—Ca^2+/Mg^2+) containing 0.005% BSA (pH 7.4). CD38 hydrolase activity was initiated by addition of 4 μM ε-NAD, which yields the fluorescent product 1,N^6-etheno ADP-ribose. Formation of fluorescent product was followed using ClarioStar Plus (BMG) microplate reader by reading fluorescence (excitation λ=300 nm; emission λ=410 nm) at two time points, one immediately after substrate addition (t=0) and one at 10 min (t=10).
(§8) Data was analysed by subtracting the values detected at t=0 from t=10 to correct for variation in baseline fluorescence. Fluorescence values were converted to percent inhibition using the average of high signal (CD38 and ε-NAD) and low signal (CD38 and ε-NAD in the presence of a tool CD38 inhibitor) control wells. IC50 values were determined from a 10-point, half log concentration response curve with a four-parameter logistic equation.

Recombinant mouse CD38 = Recombinant mouse CD38 (Mus musculus (Mouse), UniProt P56528); assay: Mouse CD38 hydrolase assay (fluorescence, ε-NAD substrate); format: biochemical; conditions: recombinant mouse CD38 0.4 nM, 12 μM ε-NAD, 30 min preincubation at 25° C., pH 7.4
Recombinant mouse CD38, sequence (P56528 whole entry): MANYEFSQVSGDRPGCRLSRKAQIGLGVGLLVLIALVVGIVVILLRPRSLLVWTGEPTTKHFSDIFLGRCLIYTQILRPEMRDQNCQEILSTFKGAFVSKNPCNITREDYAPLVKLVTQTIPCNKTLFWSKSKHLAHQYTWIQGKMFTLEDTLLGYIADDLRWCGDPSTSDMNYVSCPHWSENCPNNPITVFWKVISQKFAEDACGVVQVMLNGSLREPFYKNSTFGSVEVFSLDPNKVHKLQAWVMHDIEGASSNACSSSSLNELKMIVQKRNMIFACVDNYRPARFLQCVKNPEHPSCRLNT
Protocol: as §7, with “inhibit mouse” for “inhibit human”, “Recombinant mouse” for “Recombinant human”, “CD38 (0.4” for “CD38 (0.8”, “of 12” for “of 4”, “at 6” for “at 10”, “min (t=6).” for “min (t=10).”
as §8, with “t=6” for “t=10”, “fluorescence, and fluorescence” for “fluorescence. Fluorescence”

[4] = brain, read-out: total brain conc.
[5] = brain, total corrected for unbound fraction in brain, read-out: free brain conc.
[6] = plasma, read-out: total plasma conc.
[7] = plasma, total corrected for unbound fraction in plasma, read-out: free plasma conc.

Row | SMILES | concentration at 2 h [1, 4] [nM] | concentration at 2 h [1, 5] [nM] | Kpu,u (unbound brain/plasma partition coefficient) at 2 h [1] | concentration at 2 h [1, 6] [nM] | concentration at 2 h [1, 7] [nM] | Mouse brain (% unbound) [2] [% unbound] | Mouse plasma (% unbound) [3] [% unbound] | IC50 (Recombinant human CD38) [nM] | IC50 (Recombinant mouse CD38) [nM]
1 | Cc1cc(C(=O)N[C@H]2CC[C@H](OC(F)F)CC2)nc(-n2ccnc2)n1 [Example 17, N-((1r,4r)-4-(difluoromethoxy)cyclohexyl)-2-(1H-imidazol-1-yl)-6-methyl-pyrimidine-4-carboxamide, reference compound] | 77 | 10 | 0.08 | 1680 | 115 | 13.6 | 6.9 |  | 
2 | Cc1cc(C(=O)N[C@H]2CC[C@](C)(O)CC2)nc(-n2ccnc2)n1 [Example 18, N-((1r,4r)-4-hydroxy-4-methylcyclohexyl)-2-(1H-imidazol-1-yl)-6-methyl-pyrimidine-4-carboxamide, reference compound] | 430 | 122 | 0.03 | 13000 | 3290 | 28.4 | 25.3 |  | 
3 | Cc1cc(C(=O)N[C@H]2CC[C@H](N)CC2)nc(-n2ccnc2)n1 [Example 27, N-((1r,4r)-4-aminocyclohexyl)-2-(1H-imidazol-1-yl)-6-methyl-pyrimidine-4-carboxamide Formate] |  |  |  |  |  |  |  | ≤ 1000 | ≤ 40
